Laboratory results as given in patent US8691799B2, “Materials and methods for treatment of cancer and identification of anti-cancer compounds” (priority 2001, dated 2014).

Assays:
[1] = tested on: STAT3; experiment: Western blotting for STAT3 protein levels; format: cell-based, human; details: A549 and MDA-MB-468 cells
Protocol: Western Blotting. Treated cell samples were lysed in 30 mM Hepes, pH 7.5, 10 mM NaCl, 5 mM MgCl2, 25 mM NaF, 1 mM EGTA, 1% Triton-X-100, 10% glycerol, 2 mM sodium orthovanadate, 10 μg/ml aprotinin, 10 μg/ml soybean trypsin inhibitor, 25 μg/ml leupeptin, 2 mM PMSF, and 6.4 mg/ml p-nitrophenylphosphate. Phospho-STAT3, phospho-AKT, phospho-MEK, and phospho-p42/p44 MAPK antibodies were obtained from Cell Signaling Technologies, Cambridge, Mass. Antibodies to STAT3, JAK2, and phospho-INK were purchased from Santa Cruz Biotechnology, Santa Cruz, Calif. Phospho-JAK2 antibody came from Upstate Biotechnology, Lake Placid, N.Y. Membranes were blocked in either 5% milk in PBS, pH 7.4, containing 0.1% Tween-20 (PBS-T) or 1% BSA in TBS, pH 7.5, containing 0.1% Tween-20 (TBS-T). Phospho-specific antibodies (excepting P-MAPK and P-JNK) were incubated in 1% BSA in TBS-T while all other antibodies were diluted in 5% milk in PBS-T for either 2 hr at room temperature or overnight at 4° C. HRP-conjugated secondary antibodies (Jackson ImmunoResearch) were diluted in 5% milk in either PBS-T or TBS-T at 1:1000 dilution for one hour at room temperature. Western blots were visualized using enhanced chemiluminescence as described previously (Blaskovich, M. A. et al. Nat. Biotechnol., 2000, 18:1065-1070).
Immunoprecipitation of STAT3. […]

[2] = tested on: STAT3-dependent pLucTKS3 luciferase reporter; experiment: STAT3-dependent luciferase reporter assay in v-Src/NIH 3T3 fibroblasts; format: cell-based, murine; details: 10 μM, 24-48 hr
Excerpt: DNA Binding and Transcription. The STAT3 reporter, pLucTKS3, driving expression of firefly luciferase has been previously described (Turkson, J. et al. Mol. Cell Biol., 1999, 19:7519-7528). The pLucTKS3 plasmid harbors seven copies of a sequence corresponding to the STAT3-specific binding site in the promoter of the human C-reactive protein gene (Zhang, D. et al. J. Biol. Chem., 1996, 271:9503-9509). The STAT3-independent plasmid, pRLSRE, contains two copies of the serum response element (SRE) from the c-fos promoter (Yamauchi, K. et al. J. Biol. Chem., 1993, 268:14597-14600), subcloned into renilla luciferase reporter, pRL-null (Promega Corporation, Madison, Wis.).
Transfection and Generation of Stable Clones. […]
Preparation of Cytosolic Extracts. […] Cells were resuspended in 0.4 ml of low-salt HEPES buffer (10 mM HEPES, pH 7.8, 10 mM KCl, 0.1 mM EGTA, 0.1 mM EDTA, 1 mM PMSF, and 1 mM DTT) for 15 min, lysed by the addition of 20 μl of 10% NP-40, and centrifuged (10,000×g, 30 sec, 4° C.) to obtain the cytosolic supernatant, which was used for luciferase assays (Promega Corporation) measured with a luminometer.

Q: With `CC(C)(O)/C=C/C(=O)[C@](C)(O)[C@H]1[C@H](O)C[C@@]2(C)[C@@H]3CC=C4[C@@H](C=C(O)C(=O)C4(C)C)[C@]3(C)C(=O)C[C@]12C` [JSI-124, cucurbitacin I] as the compound, how does the STAT3 protein levels [1] read?
A: The STAT3 protein levels was “no effect on the protein levels of STAT3 and JAK2”.

Q: And the “induction of STAT3-dependent pLucTKS3 luciferase reporter” value [2]?
A: Its value is “significantly suppresses”.
